From the NIST ThermoML archive (doi:10.1021/je9008014)
Numbers after ± are expanded uncertainties.

Assays:
[1] = 101 kPa, Liquid; for mass density: Pycnometric method
[2] = xn = mol fraction of the nth substance listed; conditions: 101 kPa, Liquid, x2 = 0

viscosity ([1]; 293.15 K) | mass density ([1]; 293.15 K) | viscosity ([1]; 298.15 K) | mass density ([1]; 298.15 K) | viscosity ([1]; 303.15 K) | mass density ([1]; 303.15 K) | mass density ([1]; 308.15 K) | viscosity ([1]; 313.15 K) | mass density ([1]; 313.15 K) | viscosity ([1]; 323.15 K) | mass density ([1]; 323.15 K) | viscosity ([1]; 333.15 K) | mass density ([1]; 333.15 K) | SMILES | viscosity ([2]; 293.15 K) | viscosity ([2]; 303.15 K) | viscosity ([2]; 313.15 K) | viscosity ([2]; 323.15 K) | mass density ([2]; 333.15 K, Pycnometric method) | viscosity ([2]; 333.15 K)
7.796 ± 0.16 mPa·s | 1020.6 ± 2.1 kg/m3 | 6.739 ± 0.14 mPa·s | 1016.3 ± 2.1 kg/m3 | 5.657 ± 0.12 mPa·s | 1011.9 ± 2.1 kg/m3 | 1008.1 ± 2.1 kg/m3 | 4.185 ± 0.094 mPa·s | 1003.9 ± 2.1 kg/m3 | 3.326 ± 0.076 mPa·s | 995.5 ± 2 kg/m3 | 2.627 ± 0.061 mPa·s | 986.7 ± 2 kg/m3 | CCOCCOCCOCCO [2-(2-(2-ethoxyethoxy)ethoxy)ethanol] | – | – | – | – | – | –
– | – | – | – | – | – | – | – | – | – | – | – | – | O [water] + CCOCCOCCOCCO | 1.005 ± 0.025 mPa·s | 0.8007 ± 0.02 mPa·s | 0.656 ± 0.017 mPa·s | 0.5494 ± 0.015 mPa·s | 983.2 ± 2 kg/m3 | 0.4688 ± 0.013 mPa·s
